ChEMBL document CHEMBL1909046, “DrugMatrix in vitro pharmacology data”

What was measured:
[1] = target: T1, Alpha-1A adrenergic receptor (Rattus norvegicus, UniProt P43140); assay: DRUGMATRIX: Alpha-1A adrenergic receptor radioligand binding (ligand: prazosin); assay type: cell membranes, Wistar, Submaxillary gland, Membrane; settings: Not Active = under 50% inhibition at 10 µM
T1 sequence (P43140 whole entry): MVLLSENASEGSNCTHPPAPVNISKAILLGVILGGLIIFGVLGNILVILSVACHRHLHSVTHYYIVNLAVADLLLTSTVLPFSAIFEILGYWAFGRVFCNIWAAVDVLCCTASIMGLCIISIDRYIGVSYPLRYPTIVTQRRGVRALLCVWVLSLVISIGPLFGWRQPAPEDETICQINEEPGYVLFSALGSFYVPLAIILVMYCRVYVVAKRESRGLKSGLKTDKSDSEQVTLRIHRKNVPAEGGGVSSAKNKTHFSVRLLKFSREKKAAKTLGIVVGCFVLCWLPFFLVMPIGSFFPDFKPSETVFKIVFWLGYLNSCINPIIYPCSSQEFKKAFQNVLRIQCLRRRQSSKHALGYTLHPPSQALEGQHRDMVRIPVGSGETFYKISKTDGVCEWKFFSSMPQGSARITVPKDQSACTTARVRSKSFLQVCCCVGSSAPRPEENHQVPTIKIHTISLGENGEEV

[2] = target: T2, Alpha-1D adrenergic receptor (Homo sapiens, UniProt P25100); assay type: cell membranes, HEK293, Membrane; settings: hek293; further: in other assays of this panel Not Active means under 50% inhibition at 10 µM
T2 sequence (P25100 whole entry): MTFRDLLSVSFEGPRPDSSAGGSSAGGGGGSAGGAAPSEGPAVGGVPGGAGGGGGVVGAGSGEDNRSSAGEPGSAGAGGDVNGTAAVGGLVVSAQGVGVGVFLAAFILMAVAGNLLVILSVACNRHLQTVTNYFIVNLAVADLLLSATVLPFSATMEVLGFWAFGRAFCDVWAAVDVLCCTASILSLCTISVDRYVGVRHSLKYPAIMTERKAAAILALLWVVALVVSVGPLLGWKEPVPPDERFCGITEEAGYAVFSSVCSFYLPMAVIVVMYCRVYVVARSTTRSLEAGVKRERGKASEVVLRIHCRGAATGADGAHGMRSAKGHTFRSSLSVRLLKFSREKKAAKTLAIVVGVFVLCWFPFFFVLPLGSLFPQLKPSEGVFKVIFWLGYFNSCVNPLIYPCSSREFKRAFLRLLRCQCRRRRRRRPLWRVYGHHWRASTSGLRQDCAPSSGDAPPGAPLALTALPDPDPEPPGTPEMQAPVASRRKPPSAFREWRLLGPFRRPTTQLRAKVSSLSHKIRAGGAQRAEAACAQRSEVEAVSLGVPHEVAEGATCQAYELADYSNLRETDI

[3] = target: 5-hydroxytryptamine receptor 6 (Homo sapiens, UniProt P50406); assay type: cell membranes, HeLa, Membrane; settings: hela; further: in other assays of this panel Not Active means under 50% inhibition at 10 µM
[4] = DRUGMATRIX: GABAA, Muscimol, Central radioligand binding (ligand: [3H] Muscimol); assay type: cell membranes, Rattus norvegicus, Wistar, Brain, Membrane; settings: Not Active = under 50% inhibition at 10 µM
[5] = DRUGMATRIX: Glutamate, Kainate radioligand binding (ligand: [3H] Kainic acid); assay type: cell membranes, Rattus norvegicus, Wistar, Brain, Membrane; settings: Not Active = under 50% inhibition at 10 µM
[6] = DRUGMATRIX: Interleukin IL-1 radioligand binding (ligand: [125I] interleukin 1beta); assay type: cell membranes, Membrane; settings: nih3t3; Not Active = under 50% inhibition at 10 µM
Progesterone receptor = target: T3, Progesterone receptor (Bos taurus, UniProt Q690N0); assay: DRUGMATRIX: Progesterone radioligand binding (ligand: [3H] R-5020); assay type: tissue-based, Uterus; settings: Not Active = under 50% inhibition at 10 µM
T3 sequence (Q690N0 whole entry): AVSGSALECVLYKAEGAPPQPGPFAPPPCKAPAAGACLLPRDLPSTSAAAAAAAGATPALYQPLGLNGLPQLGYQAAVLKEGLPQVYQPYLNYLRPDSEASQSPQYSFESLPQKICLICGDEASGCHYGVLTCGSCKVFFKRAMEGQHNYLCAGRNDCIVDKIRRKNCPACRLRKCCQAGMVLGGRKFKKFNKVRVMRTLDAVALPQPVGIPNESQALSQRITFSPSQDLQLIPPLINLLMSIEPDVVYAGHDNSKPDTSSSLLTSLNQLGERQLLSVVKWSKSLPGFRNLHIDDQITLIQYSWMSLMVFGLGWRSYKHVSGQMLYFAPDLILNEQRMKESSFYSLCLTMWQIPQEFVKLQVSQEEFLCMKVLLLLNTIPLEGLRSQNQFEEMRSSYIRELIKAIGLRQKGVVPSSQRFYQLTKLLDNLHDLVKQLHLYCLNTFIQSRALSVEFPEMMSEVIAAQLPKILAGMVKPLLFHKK

[7] = target: Protein kinase C alpha type (Homo sapiens, UniProt P17252); assay type: cell-based; settings: sf9;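 further: inhibition of PKCalpha kinase activity measured in an enzyme assay with histone as the phosphorylation substrate; in other assays of this panel Not Active means under 50% inhibition at 10 µM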

Chain of 5-hydroxytryptamine receptor 6 (P50406 whole entry): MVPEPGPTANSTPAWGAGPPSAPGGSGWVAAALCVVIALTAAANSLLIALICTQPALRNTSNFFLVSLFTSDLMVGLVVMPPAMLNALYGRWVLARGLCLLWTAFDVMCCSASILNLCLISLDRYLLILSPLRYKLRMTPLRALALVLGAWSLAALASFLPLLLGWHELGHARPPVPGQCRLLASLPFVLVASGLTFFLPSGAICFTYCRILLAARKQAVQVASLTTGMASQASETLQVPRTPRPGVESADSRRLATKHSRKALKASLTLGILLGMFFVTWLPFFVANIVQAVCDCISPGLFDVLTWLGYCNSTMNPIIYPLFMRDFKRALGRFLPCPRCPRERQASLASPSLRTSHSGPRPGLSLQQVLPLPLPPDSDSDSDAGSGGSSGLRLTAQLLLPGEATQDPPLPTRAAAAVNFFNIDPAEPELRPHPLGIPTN

C[C@@]12C(=O)OC(=O)[C@]1(C)[C@H]1CC[C@@H]2O1 [CANTHARIDIN]
Not Active: IC50 [1] | IC50 [2] | IC50 [3] | IC50 [4] | Ki [4] | IC50 [5] | Ki [5] | IC50 [6] | Ki [6] | IC50 (Progesterone receptor) | IC50 [7]

O=NN(CCCl)C(=O)NCCCl [CARMUSTINE]
Not Active: IC50 [1] | IC50 [2] | IC50 [3] | IC50 [4] | Ki [4] | IC50 [5] | Ki [5] | IC50 [6] | Ki [6] | IC50 (Progesterone receptor) | IC50 [7]

CC1=C(C(=O)O)N2C(=O)[C@@H](NC(=O)[C@H](N)c3ccccc3)[C@H]2SC1 [CEPHALEXIN ANHYDROUS]
Not Active: IC50 [1] | IC50 [2] | IC50 [3] | IC50 [4] | Ki [4] | IC50 [5] | Ki [5] | IC50 [6] | Ki [6] | IC50 (Progesterone receptor) | IC50 [7]

O=C(N[C@H](CO)[C@H](O)c1ccc([N+](=O)[O-])cc1)C(Cl)Cl [CHLORAMPHENICOL]
Not Active: IC50 [1] | IC50 [2] | IC50 [3] | IC50 [4] | Ki [4] | IC50 [5] | Ki [5] | IC50 [6] | Ki [6] | IC50 (Progesterone receptor) | IC50 [7]

ClC(Cl)Cl [CHLOROFORM]
Not Active: IC50 [1] | IC50 [2] | IC50 [3] | IC50 [4] | Ki [4] | IC50 [5] | Ki [5] | IC50 [6] | Ki [6] | IC50 (Progesterone receptor) | IC50 [7]

C[N+](C)(C)CCO.[Cl-] [CHOLINE CHLORIDE]
Not Active: IC50 [1] | IC50 [2] | IC50 [3] | IC50 [4] | Ki [4] | IC50 [5] | Ki [5] | IC50 [6] | Ki [6] | IC50 (Progesterone receptor) | IC50 [7]

CCOC(=O)C(C)(C)Oc1ccc(Cl)cc1 [CLOFIBRATE]
Not Active: IC50 [1] | IC50 [2] | IC50 [3] | IC50 [4] | Ki [4] | IC50 [5] | Ki [5] | IC50 [6] | Ki [6] | IC50 (Progesterone receptor) | IC50 [7]

CC(=O)OCC(=O)[C@@]1(O)CC[C@H]2[C@@H]3CCC4=CC(=O)CC[C@]4(C)[C@H]3C(=O)C[C@@]21C [CORTISONE ACETATE]
Not Active: IC50 [1] | IC50 [2] | IC50 [3] | IC50 [4] | Ki [4] | IC50 [5] | Ki [5] | IC50 [6] | Ki [6] | IC50 (Progesterone receptor) | IC50 [7]

O=c1ccc2ccccc2o1 [COUMARIN]
Not Active: IC50 [1] | IC50 [2] | IC50 [3] | IC50 [4] | Ki [4] | IC50 [5] | Ki [5] | IC50 [6] | Ki [6] | IC50 (Progesterone receptor) | IC50 [7]

C[C@@H]1C[C@@H]([C@H](O)CC2CC(=O)NC(=O)C2)C(=O)[C@@H](C)C1 [CYCLOHEXIMIDE]
Not Active: IC50 [1] | IC50 [2] | IC50 [3] | IC50 [4] | Ki [4] | IC50 [5] | Ki [5] | IC50 [6] | Ki [6] | IC50 (Progesterone receptor) | IC50 [7]
